Source: ChEMBL document CHEMBL2069209, “Identification of selective tubulin inhibitors as potential anti-trypanosomal agents” (Bioorg Med Chem Lett, 2012)

Columns and labels:
Trypanosoma brucei = assay: Antitrypanosomal activity against bloodstream form of Trypanosoma brucei 427 after 48 hrs by MTS assay; assay type: functional, organism-based; details: Trypanosoma brucei, 427, 48 h
[1] = Selectivity ratio of IC50 for human SKBR3 cells to IC50 for bloodstream form of Trypanosoma brucei 427; assay type: ADME, cell-based, SK-BR-3; details: read-out: Ratio IC50
SK-BR-3 = assay: Growth inhibition of human SKBR3 cells after 48 hrs by MTT assay; assay type: cell-based; details: SK-BR-3, 48 h

IC50 (Trypanosoma brucei) | Structure (SMILES) | selectivity ratio [1] | IC50 (SK-BR-3)
3.22 µM | Cc1ccc(C)c(COc2cc(NC(=O)c3ccc4c(c3)OCO4)ccc2N(C)S(C)(=O)=O)c1 | 0.1 | 
6.85 µM | COc1ccc(CC(=O)Nc2ccc(N(C)S(C)(=O)=O)c(OCc3cc(C)ccc3C)c2)cc1OC | 5 | 
51.3 µM | Cc1ccc(C)c(COc2cc(NC(=O)Cc3ccccc3)ccc2N(C)S(C)(=O)=O)c1 | 2.3 | 
2.3 µM | CN(c1ccc(NC(=O)c2ccc(Cl)c([N+](=O)[O-])c2)cc1OCc1ccccc1)S(C)(=O)=O | 4 | 
2.8 µM | CN(c1ccc(NC(=O)c2ccc(C#N)cc2)cc1OCc1ccccc1)S(C)(=O)=O | 6 | 
6.44 µM | Cc1ccc(C)c(COc2cc(NC(=O)c3ccccc3)ccc2N(C)S(C)(=O)=O)c1 | 0.6 | 
82.1 µM | COc1ccc(S(=O)(=O)Nc2cccnc2Nc2ccc(O)cc2)cc1 [ABT-751] |  | 740 nM
0.0046 µM | CC(=O)O[C@H]1C(=O)[C@@]2(C)[C@H]([C@H](OC(=O)c3ccccc3)[C@]3(O)C[C@H](OC(=O)[C@H](O)[C@@H](NC(=O)c4ccccc4)c4ccccc4)C(C)=C1C3(C)C)[C@]1(OC(C)=O)CO[C@@H]1C[C@@H]2O [PACLITAXEL] |  | 
0.41 µM | CC[C@]1(O)C[C@@H]2CN(CCc3c([nH]c4ccccc34)[C@@](C(=O)OC)(c3cc4c(cc3OC)N(C)[C@H]3[C@@](O)(C(=O)OC)[C@H](OC(C)=O)[C@]5(CC)C=CCN6CC[C@]43[C@@H]65)C2)C1 [VINBLASTINE] |  | 0.91 nM

Structure (SMILES) | IC50 (Trypanosoma brucei) | selectivity ratio [1] | IC50 (SK-BR-3)
O=C(Nc1ccncc1)C(=O)c1cn(Cc2ccc(Cl)cc2)c2ccccc12 [INDIBULIN] | 114 µM |  | 33 nM
COC(=O)Nc1nc2cc(C(=O)c3cccs3)ccc2[nH]1 [NOCODAZOLE] | 44.2 µM |  | 84 nM
